Measurements as given in ChEMBL document CHEMBL5331101, “Synthesis and evaluation of N-sulfonylpiperidine-3-carboxamide derivatives as capsid assembly modulators inhibiting HBV in vitro and in HBV-transgenic mice” (Eur J Med Chem, 2023).
Activity calls are given as the source filed them. The calls are words filed in the database; no cut-off is given here.

Key:
Hepatitis B virus [1] = test: Antiviral activity against HBV infected in human HePAD38 cells assessed as reduction in intracellular core HBV DNA level at 20 uM incubated for 6 days by qPCR analysis relative to control; format: functional; design: scale not given: the % may be the effect or the level left; conditions: time 6 day
Hepatitis B virus [2] = test: Antiviral activity against HBV infected in human HePAD38 assessed as reduction on HBeAg level at 20 uM by ELISA analysis relative to control; format: functional; design: scale not given: the % may be the effect or the level left
Hepatitis B virus [3] = test: Antiviral activity against HBV infected in human HePAD38 assessed as reduction on HBsAg level at 20 uM by ELISA analysis relative to control; format: functional; design: scale not given: the % may be the effect or the level left
Hepatitis B virus [4] = test: Antiviral activity against HBV infected in human HePAD38 cells assessed as reduction of capsid associated HBV DNA; format: functional, organism-based
[5] = Cytotoxicity against human HepAD38 cells assessed as reduction in cell viability incubated for 6 days by CCK-8 assay; format: functional; conditions: HePAD38, 144 h, time 6 day
[6] = Selectivity index, ratio of CC50 for cytotoxicity against human HepAD38 cells to EC50 for antiviral activity against HBV infected in human HePAD38 cells; format: toxicity, cell-based; conditions: read-out: Ratio CC50/EC50
Hepatitis B virus [7] = test: Antiviral activity against HBV infected in human HePAD38 cells assessed as decay of viral capsid protein by agarose gel electrophoresis-based assay; format: functional, organism-based
Hepatitis B virus [8] = test: Antiviral activity against HBV infected in human HePAD38 cells assessed as decay of viral core protein by agarose gel electrophoresis-based assay; format: functional, organism-based
Hepatitis B virus [9] = test: Antiviral activity against HBV infected in human HePAD38 cells assessed as reduction in capsid formation upto 10 uM measured for 6 days by agarose gel electrophoresis-based assay; format: functional, organism-based; conditions: time 6.0 day
Hepatitis B virus [10] = test: Antiviral activity against HBV infected in human HePAD38 cells assessed as reduction in […] level upto10 uM measured for 6 days by agarose gel electrophoresis-based assay; format: functional, organism-based; conditions: dose 10.0 µM, time 6.0 day
Hepatitis B virus [11] = test: Antiviral activity against HBV infected in human HePAD38 cells assessed as reduction in capsid formation at 0.625 to 10 uM measured for 6 days by agarose gel electrophoresis-based assay; format: functional, organism-based; conditions: dose 0.625-10 µM, time 6.0 day
Hepatitis B virus [12] = test: Antiviral activity against HBV infected in human HePAD38 cells assessed as reduction in capsid formation measured for 6 days by agarose gel electrophoresis-based assay; format: functional, organism-based; conditions: time 6.0 day
Hepatitis B virus [13] = test: Antiviral activity against HBV infected human HePAD38 cells assessed as reduction in HBeAg level in cell supernatant at 0.625 to 10 uM and measured after 6 days by ELISA analysis; format: functional, organism-based; conditions: dose 0.625-10 µM, time 6.0 day
Hepatitis B virus [14] = test: Antiviral activity against HBV infected human HePAD38 cells assessed as reduction in HBsAg level in cell supernatant at 0.625 to 10 uM and measured after 6 days by ELISA analysis; format: functional, organism-based; conditions: dose 0.625-10 µM, time 6.0 day
Hepatitis B virus [15] = test: Antiviral activity against HBV infected in human HePAD38 cells assessed as reduction in intracellular 3.5 Kb HBV RNA level at 0.625 to 10 uM and incubated for 6 days by Northern blot analysis; format: functional, organism-based; conditions: dose 0.625-10 µM, time 6.0 day
Hepatitis B virus [16] = test: Antiviral activity against HBV infected in human HePAD38 cells assessed as reduction in intracellular 3.5 Kb HBV RNA level at 0.625 to 10 uM and incubated for 6 days by real-time PCR analysis; format: functional, organism-based; conditions: dose 0.625-10 µM, time 6.0 day
Hepatitis B virus [17] = test: Antiviral activity against HBV infected in human HePAD38 cells assessed as reduction in HBV core DNA level and incubated for 6 days by southern blot analysis; format: functional, organism-based; conditions: dose 0.625-10 µM, time 6.0 day
Hepatitis B virus [18] = test: Antiviral activity against HBV infected in human HePAD38 cells assessed as reduction in encapsidated pgRNA at 0.625 to 10 uM incubated for 6 days by northern blot analysis; format: functional, organism-based; conditions: dose 0.625-10 µM, time 6.0 day
Hepatitis B virus [19] = test: Effect on capsid morphology in human HePAD38 cells infected with Hepatitis B virus at 5 uM incubated for 6 days by immunofluorescence analysis; format: functional, organism-based; conditions: time 6.0 day
Hepatitis B virus [20] = test: Antiviral activity against HBV infected in human HepAD38 cells assessed as effect on capsid morphology at 20 uM incubated for 3 to 7 days by transmission electron microscopy; format: functional, organism-based; conditions: time 3-7 day
Hepatitis B virus [21] = test: Antiviral activity against HBV genotype A infected in human HepG2 cells assessed as inhibition of viral replication; format: functional, organism-based
Hepatitis B virus [22] = test: Antiviral activity against HBV genotype B infected in human HepG2 cells assessed as inhibition of viral replication; format: functional, organism-based
Hepatitis B virus [23] = test: Antiviral activity against HBV genotype C infected in human HepG2 cells assessed as inhibition of viral replication; format: functional, organism-based
Hepatitis B virus [24] = test: Antiviral activity against HBV genotype D infected in human HepG2 cells assessed as inhibition of viral replication; format: functional, organism-based
Hepatitis B virus [25] = test: Antiviral activity against wild type HBV infected in human HepG2 cells assessed as inhibition of viral replication; format: functional, organism-based
Hepatitis B virus [26] = test: Antiviral activity against ETV-resistant HBV infected in human HepG2 cells assessed as inhibition of viral replication; format: functional, organism-based
Hepatitis B virus [27] = test: Antiviral activity against HBV infected in transgenic C57BL/6 mouse assessed as inhibition of viral replication by measuring log reduction in serum HBV DNA level at 100 mg/kg, po BID measured for 12 days by RT-PCR analysis; format: functional; conditions: time 12 day
Hepatitis B virus [28] = test: Antiviral activity against HBV infected in transgenic C57BL/6 mouse assessed as inhibition of viral replication by measuring log reduction in serum HBV DNA level at 30 mg/kg, po BID measured for 12 days by RT-PCR analysis; format: functional; conditions: time 12 day
Hepatitis B virus [29] = test: Antiviral activity against HBV infected in transgenic C57BL/6 mouse assessed as inhibition of viral replication by measuring log reduction in liver HBV DNA level at 30 mg/kg, po BID measured for 12 days by RT-PCR analysis; format: functional; conditions: time 12 day
Hepatitis B virus [30] = test: Antiviral activity against HBV infected in transgenic C57BL/6 mouse assessed as inhibition of viral replication by measuring log reduction in liver HBV DNA level at 100 mg/kg, po BID measured for 12 days by RT-PCR analysis; format: functional; conditions: time 12 day
Hepatitis B virus [31] = test: Antiviral activity against HBV infected in transgenic C57BL/6 mouse assessed as reduction in intrahepatic 3.5 kb HBV RNA level at 100 mg/kg, po BID measured for 12 days by RT-PCR analysis; format: functional, organism-based; conditions: time 12.0 day
Hepatitis B virus [32] = test: Antiviral activity against HBV infected in transgenic C57BL/6 mouse assessed as reduction in intrahepatic 3.5 kb HBV RNA level at 30 mg/kg, po BID measured for 12 days by RT-PCR analysis; format: functional, organism-based; conditions: time 12.0 day
Hepatitis B virus [33] = test: Antiviral activity against HBV infected in transgenic C57BL/6 mouse assessed as reduction in serum HBeAg level at 30 mg/kg, po BID measured for 12 days by ELISA analysis; format: functional, organism-based; conditions: time 12.0 day
Hepatitis B virus [34] = test: Antiviral activity against HBV infected in transgenic C57BL/6 mouse assessed as reduction in serum HBeAg level at 100 mg/kg, po BID measured for 12 days by ELISA analysis; format: functional, organism-based; conditions: time 12.0 day
Hepatitis B virus [35] = test: Antiviral activity against HBV infected in transgenic C57BL/6 mouse assessed as reduction in serum HBsAg level at 100 mg/kg, po BID measured for 12 days by ELISA analysis; format: functional, organism-based; conditions: time 12.0 day
Hepatitis B virus [36] = test: Antiviral activity against HBV infected in transgenic C57BL/6 mouse assessed as reduction in serum HBsAg level at 30 mg/kg, po BID measured for 12 days by ELISA analysis; format: functional, organism-based; conditions: time 12.0 day
[37] = Hepatotoxicity in C57BL/6 mouse assessed as effect on AST level in serum at 30 mg/kg, po BID measured for 12 days; format: toxicity, organism-based; conditions: in vivo, 288 h, time 12 day
[38] = Hepatotoxicity in C57BL/6 mouse assessed as effect on AST level in serum at 100 mg/kg, po BID measured for 12 days; format: toxicity, organism-based; conditions: in vivo, 288 h, time 12 day
[39] = Hepatotoxicity in C57BL/6 mouse assessed as effect on ALT level in serum at 30 mg/kg, po BID measured for 12 days; format: toxicity, organism-based; conditions: in vivo, 288 h, time 12 day
[40] = Hepatotoxicity in C57BL/6 mouse assessed as effect on ALT level in serum at 100 mg/kg, po BID measured for 12 days; format: toxicity, organism-based; conditions: in vivo, 288 h, time 12 day
[41] = Toxicity in C57BL/6 mouse assessed as histopathological changes in liver at 100 mg/kg, po measured after 12 days by H and E staining analysis; format: organism-based; conditions: in vivo, 288 h, time 12 day
[42] = Toxicity in C57BL/6 mouse assessed as histopathological changes in liver at 30 mg/kg, po measured after 12 days by H and E staining analysis; format: organism-based; conditions: in vivo, 288 h, time 12 day

Which Activity (Hepatitis B virus [1]) does the source give for CCOC(=O)c1c(S(=O)(=O)N2CCC[C@H](C(=O)Nc3ccc(F)c(C)c3)C2)c(C)n(CC(F)(F)F)c1C here?
Its Activity is 12%.

And the Activity (Hepatitis B virus [2])?
The Activity was 36.9%.

What about the Activity (Hepatitis B virus [3]) of the same compound?
Its Activity is 101.8%.

And the EC50 (Hepatitis B virus [4])?
The EC50 was 0.11 µM.

What about the CC50 [5] of the same compound?
The CC50 was 82.3 µM.

What about the selectivity ratio [6] of the same compound?
Its selectivity ratio is 775.

And the Activity (Hepatitis B virus [7])?
Its Activity is “inactive”.

And the Activity (Hepatitis B virus [8])?
Its Activity is “inactive”.

What about the Activity (Hepatitis B virus [9]) of the same compound?
The Activity was “Active”.

And the Activity (Hepatitis B virus [10])?
Its Activity is “Active”.

What about the Activity (Hepatitis B virus [11]) of the same compound?
Its Activity is “Active”.

What about the Activity (Hepatitis B virus [12]) of the same compound?
Its Activity is “Dose-Dependent Effect”.

And the Activity (Hepatitis B virus [13])?
Its Activity is “Active”.

What about the Activity (Hepatitis B virus [14]) of the same compound?
Its Activity is “inactive”.

And the Activity (Hepatitis B virus [15])?
Its Activity is “Active”.

And the Activity (Hepatitis B virus [16])?
The Activity was “Active”.

And the Activity (Hepatitis B virus [17])?
The Activity was “Dose-Dependent Effect”.

And the Activity (Hepatitis B virus [18])?
The Activity was “Active”.

And the Activity (Hepatitis B virus [19])?
The Activity was “inactive”.

And the Activity (Hepatitis B virus [20])?
The Activity was “inactive”.

What about the EC50 (Hepatitis B virus [21]) of the same compound?
The EC50 was 0.13 µM.

And the EC50 (Hepatitis B virus [22])?
Its EC50 is 0.12 µM.

What about the EC50 (Hepatitis B virus [23]) of the same compound?
The EC50 was 0.16 µM.

And the EC50 (Hepatitis B virus [24])?
The EC50 was 0.24 µM.

And the EC50 (Hepatitis B virus [25])?
Its EC50 is 0.0031 µM.

What about the EC50 (Hepatitis B virus [26]) of the same compound?
The EC50 was 0.0072 µM.

What about the “log(activity)” value (Hepatitis B virus [27]) of the same compound?
Its value is 2.42.

What about the “log(activity)” value (Hepatitis B virus [28]) of the same compound?
The value was 1.37.

And the “log(activity)” value (Hepatitis B virus [29])?
The value was 0.43.

And the “log(activity)” value (Hepatitis B virus [30])?
Its value is 0.98.

And the Activity (Hepatitis B virus [31])?
The Activity was “Active”.

And the Activity (Hepatitis B virus [32])?
The Activity was “Active”.

And the Activity (Hepatitis B virus [33])?
Its Activity is “Active”.

What about the Activity (Hepatitis B virus [34]) of the same compound?
Its Activity is “Active”.

What about the Activity (Hepatitis B virus [35]) of the same compound?
The Activity was “inactive”.

And the Activity (Hepatitis B virus [36])?
The Activity was “inactive”.

And the Activity [37]?
Its Activity is “Non-Toxic”.

And the Activity [38]?
The Activity was “Non-Toxic”.

And the Activity [39]?
Its Activity is “Non-Toxic”.

And the Activity [40]?
Its Activity is “Non-Toxic”.

What about the Activity [41] of the same compound?
Its Activity is “Non-Toxic”.

What about the Activity [42] of the same compound?
Its Activity is “Non-Toxic”.
